The record followed here is patent US11420962B2, “Indene derivatives useful in treating pain and inflammation” (TARO PHARMACEUTICALS INC., priority 2018, dated 2022).

The test system of one assay is Human DRG. The experiment in a line: Human dorsal root ganglion (DRG) excitability response. It counts as cell-based. The following applies: Table 6; Biological Example 3, human DRG; read-out: Scoring (IC50). Here is the method: Human DRGs are transferred into a dissection vessel containing a cold (4° C.), fresh proprietary dissection solution. DRGs are maintained completely submerged in dissection solution followed by dissection by an appropriate method.
Cells are plated into a 96 well plate. Calcium dye (Fluo 8-AM) is loaded in each well for a period of 20 to 25 min, maintaining temperature at ambient. The baseline excitability profile (ability of firing action potentials) of the cells is assessed at both low and high threshold stimulations using optical EFS. Following baseline profiling, cells are subjected to test compounds.
Representative compounds of the invention (i.e., test compounds) are added to cells and the cells are stimulated (using EFS) to induce action potentials at regular intervals, according to the parameters outlined in Table 5. Four concentrations of each compound are utilized and directly injected into separate wells to allow for determination of a dose response (IC50). At the end of the protocol, the nociceptor positive control compound (capsaicin) is perfused into the cells at 200 nM and signal recorded. […]
Recordings are performed in stream mode at 100 Hz for the EFS portion of the above protocol and in time lapse model at 0.2 Hz for the final step utilizing capsaicin. For each concentration tested, the number of cells blocked vs baseline will be counted at different thresholds. […]

The test system of the next assay is Mice (male, C57Bl/6). The experiment in a line: Bleomycin lung fibrosis. Type of assay: in vivo. From the text:
Mice (male, C57BL/6) were randomized into treatment groups and fibrosis was induced by intratracheal administration of bleomycin. Treatment with representative compounds of the invention (i.e., test compounds) or reference standard (pirfenidone) was initiated on Day −1 and administered daily unto Day 7 or Day 21. For groups undergoing bronchoalveolar lavage (BAL), the trachea was cannulated and infused with ice cold Hank's Balanced Salt Solution (HBSS, pH 7.2). The collected lavage fluid was analyzed for cell numbers (total and differential counts) and levels of soluble TGFβ and collagen. For other groups, the lungs were either snap-frozen or formalin-fixed for further analyses.

A further assay relates to rats (male, Wistar). The experiment in a line: Rat monosodium iodoacetate-induced osteoarthritis. The note with it: for reduction difference in weight bearing as compared to the vehicle: PO, QD. Type of assay: in vivo. Here is the method:
Representative compounds of the invention (i.e., test compounds) were administered to rats (male, Wistar) PO, QD, at 3 or 30 mg/kg, starting on Day 0 through to Day 21 of the study. Osteoarthritis was modeled by intra-articular injection of 3 mg of monosodium iodoacetate (MIA) in the right knee. Knee swelling, paw withdrawal threshold (mechanical allodynia) and the difference in weight bearing were measured on Day 0 (pre-induction) and on Days 3, 7, 14 and 21 post-MIA injection. Tramadol was used as a reference standard.

Assay [1] concerns Rats (male, Sprague-Dawley). The experiment in a line: TNBS colitis assay in rats. It counts as in vivo. The following applies: 30 mg/kg dose, PO, QD for 7 days. Here is the method: TNBS Colitis Assay of Representative Compounds in Rats Rats (male, Sprague-Dawley) were anaesthetized and a solution of TNBS (48 mg/kg) in ethanol, was instilled intra-rectally to induce colitis, 1 h after oral dosing of representative compounds of the invention (i.e., test compounds). Test compounds were dosed PO, QD for 7 days, using prednisolone as a reference standard. […] On Day 7, rats were euthanized and the colon was evaluated for length, weight, wall thickness, ulcer number and length and for the presence of adhesions and strictures. A colonic score was calculated based on the severity of the colonic parameters.

Assay [2] relates to Rats (female, Sprague-Dawley). Nature of the assay: Rat ketamine cystitis (visceral pain). Type of assay: in vivo. Here is the method: Rats (female, Sprague-Dawley) received daily intraperitoneal injections of saline (sham control) or ketamine (50 mg/kg) for 14 days. […] Referred mechanical sensitivity was assessed on Day 7 and Day 14 by application of a series of von Frey filaments to the lower abdomen and the nociceptive threshold was scored.

The test system of another assay is Rat DRG. The experiment in a line: Rat dorsal root ganglion excitability response (EFS, Ca2+ transients). The note with it: Rattus norvegicus; Table 3; electrical field stimulation, Ca5 indicator; read-out: Scoring (EC50, Rat DRG excitability). Type of assay: cell-based. An outline of the steps:
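Adult rat DRG cells cultured for 2 days were loaded with the Ca5 dye 1 h before electrical field stimulation under four protocols. Compounds were tested at six concentrations (typically top 30 μM, 1:3 steps, duplicate), added either 24 h before or directly before EFS. The read-out was the per-well peak/baseline fluorescence ratio change, with imaging used to check for toxicity.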

`C=C1CC[C@H]2[C@H](CN)[C@@H]([C@@]3(C)Cc4cn[nH]c4C[C@@H]3CO)CC[C@]12C` [Ia-1, ((5R,6S)-5-((3aS,4R,5S,7aS)-4-(aminomethyl)-7a-methyl-1-methyleneoctahydro-1H-inden-5-yl)-5-methyl-4,5,6,7-tetrahydro-1H-indazol-6-yl)methanol]: the half-maximal inhibitory concentration (IC50) in the assay on Human DRG was less than 2 µM. The “reduction in BAL macrophages as compared to the vehicle” value is recorded as 41% in the assay with Mice (male, C57Bl/6) (Day 7, 3.0 mg/kg dose) and 35% in the assay with Mice (male, C57Bl/6) (Day 7, 30 mg/kg dose). Besides, the reduction in fibrosis in the assay on Mice (male, C57Bl/6) (Day 14, 30 mg/kg dose (first mention)) stood at 31%; in the assay on Mice (male, C57Bl/6) (Day 14, 30 mg/kg dose (second mention)), 34%. Also, the “reduction difference in weight bearing as compared to the vehicle” value is given as 50% in the assay on rats (male, Wistar) (3.0 mg/kg dose) and 57% with rats (male, Wistar) (30 mg/kg). The “reduction in knee diameter as compared to the vehicle” value in the assay on rats (male, Wistar) (Day 3, 3.0 mg/kg) turned out to be 23%; in the assay with rats (male, Wistar) (Day 3, 30 mg/kg), 43%. Moreover, the “inhibition of the colonic score” value in assay [1] came out at 36%. Further, the “increase in the nociceptive threshold (relative to unchallenged)” value in assay [2] (1.0 mg/kg dose, PO, QD) is given as 61%; in assay [2] (3.0 mg/kg dose, PO, QD), 69%; in assay [2] (10 mg/kg dose) it was 85%. In addition, the 50% effective concentration (EC50) with Rat DRG fell in the range of 6 to 15 µM.

In general, IC50 refers to the concentration needed to halve the response being measured. For orientation: EC50 means the concentration needed to bring the measured effect to its halfway point.
